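Cells were grown in 96-well plates and exposed to each compound for 48 hours at five concentrations; endpoints were interpolated linearly between bracketing concentrations, or set to the highest concentration if not reached. At the GI50, growth is halved. TGI: concentration producing complete growth inhibition.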
Assays:
Assay in all cases: NCI-60 cell line screen, 48 h
NCI-H226 lung = tested on: NCI-H226 lung
NCI-H460 lung = tested on: NCI-H460 lung
NCI-H522 lung = tested on: NCI-H522 lung
NCI/ADR-RES ovarian = tested on: NCI/ADR-RES ovarian
OVCAR-4 ovarian = tested on: OVCAR-4 ovarian
OVCAR-5 ovarian = tested on: OVCAR-5 ovarian
OVCAR-8 ovarian = tested on: OVCAR-8 ovarian
PC-3 prostate = tested on: PC-3 prostate
RPMI-8226 leukemia = tested on: RPMI-8226 leukemia
RXF 393 renal = tested on: RXF 393 renal
SF-268 CNS = tested on: SF-268 CNS
SF-295 CNS = tested on: SF-295 CNS
SF-539 CNS = tested on: SF-539 CNS
SK-MEL-2 melanoma = tested on: SK-MEL-2 melanoma
SK-MEL-28 melanoma = tested on: SK-MEL-28 melanoma
SK-MEL-5 melanoma = tested on: SK-MEL-5 melanoma
SK-OV-3 ovarian = tested on: SK-OV-3 ovarian
SN12C renal = tested on: SN12C renal
SNB-19 CNS = tested on: SNB-19 CNS
SNB-75 CNS = tested on: SNB-75 CNS
SR leukemia = tested on: SR leukemia
SW-620 colon = tested on: SW-620 colon
T-47D breast = tested on: T-47D breast
TK-10 renal = tested on: TK-10 renal
U251 CNS = tested on: U251 CNS
UACC-257 melanoma = tested on: UACC-257 melanoma
UACC-62 melanoma = tested on: UACC-62 melanoma
UO-31 renal = tested on: UO-31 renal

With `CN(C)CCN(C)c1ccc2ncc(C#Cc3cncc(C(=O)Nc4ccc(CN5CCN(C)CC5)c(C(F)(F)F)c4)c3)n2n1` the GI50 (NCI-H226 lung) was 1.23 µM, the TGI (NCI-H226 lung) was 8.28 µM and the GI50 (NCI-H460 lung) was 0.891 µM. The TGI (NCI-H460 lung) was 1.69 µM, the GI50 (NCI-H522 lung) was 5.08 µM and the TGI (NCI-H522 lung) was 11.8 µM. The GI50 (NCI/ADR-RES ovarian) was 2.13 µM, the TGI (NCI/ADR-RES ovarian) was 7.8 µM and the GI50 (OVCAR-4 ovarian) was 0.933 µM. The TGI (OVCAR-4 ovarian) was 2.75 µM, the GI50 (OVCAR-5 ovarian) was 6.21 µM and the TGI (OVCAR-5 ovarian) was 12.9 µM. It also gave a GI50 (OVCAR-8 ovarian) of 1.95 µM, a TGI (OVCAR-8 ovarian) of 7.06 µM and a GI50 (PC-3 prostate) of 5.07 µM. The TGI (PC-3 prostate) was 11.2 µM, the GI50 (RPMI-8226 leukemia) was 0.955 µM and the TGI (RPMI-8226 leukemia) was 2.16 µM. For the same compound, the GI50 (RXF 393 renal) was 0.876 µM, the TGI (RXF 393 renal) was 1.63 µM and the GI50 (SF-268 CNS) was 5.58 µM. The TGI (SF-268 CNS) was 13.3 µM, the GI50 (SF-295 CNS) was 0.801 µM and the TGI (SF-295 CNS) was 1.76 µM. For the same compound, the GI50 (SF-539 CNS) was 0.615 µM, the TGI (SF-539 CNS) was 1.32 µM and the GI50 (SK-MEL-2 melanoma) was 6.09 µM. The TGI (SK-MEL-2 melanoma) was 12.5 µM, the GI50 (SK-MEL-28 melanoma) was 7.58 µM and the TGI (SK-MEL-28 melanoma) was 14.3 µM. It also gave a GI50 (SK-MEL-5 melanoma) of 5.08 µM, a TGI (SK-MEL-5 melanoma) of 10.9 µM and a GI50 (SK-OV-3 ovarian) of 8.01 µM. For the same compound, the TGI (SK-OV-3 ovarian) was 15 µM, the GI50 (SN12C renal) was 2.23 µM and the TGI (SN12C renal) was 7.79 µM. The GI50 (SNB-19 CNS) was 4.75 µM, the TGI (SNB-19 CNS) was 10.8 µM and the GI50 (SNB-75 CNS) was 0.879 µM. It also gave a TGI (SNB-75 CNS) of 6.57 µM, a GI50 (SR leukemia) of 0.614 µM and a TGI (SR leukemia) of 1.63 µM. For the same compound, the GI50 (SW-620 colon) was 0.949 µM, the TGI (SW-620 colon) was 2.27 µM and the GI50 (T-47D breast) was 7.83 µM. The TGI (T-47D breast) was 15.5 µM, the GI50 (TK-10 renal) was 12.1 µM and the TGI (TK-10 renal) was 19.5 µM. For the same compound, the GI50 (U251 CNS) was 0.883 µM, the TGI (U251 CNS) was 1.78 µM and the GI50 (UACC-257 melanoma) was 6.04 µM. It also gave a TGI (UACC-257 melanoma) of 12.3 µM, a GI50 (UACC-62 melanoma) of 8.21 µM and a TGI (UACC-62 melanoma) of 15.7 µM. The GI50 (UO-31 renal) was 6.05 µM and the TGI (UO-31 renal) was 12.4 µM.

— PubChem BioAssay (NCI)
